Measured values taken from patent US9296759B2, “Amino-oxazine and amino-dihydrothiazine compounds as beta-secretase modulators and methods of use” (AMGEN INC., priority 2011, dated 2016).
pIC50: −log10 of the molar value.

How the values were obtained:
[1] = tested on: Aβ40 in conditioned medium of cells stably expressing Amyloid Precursor Protein (APP); assay: In vitro BACE cell-based assay (HEK cell assay, Aβ40 sandwich ELISA); details: average IC50, Aβ40, 24 h incubation
Method: In Vitro BACE Cell-Based Assay
The cell-based assay measures inhibition or reduction of Aβ40 in conditioned medium of test compound treated cells expressing amyloid precursor protein.
Cells stably expressing Amyloid Precursor Protein (APP) were plated at a density of 40K cells/well in 96 well plates (Costar). The cells were cultivated for 24 hours at 37° C. and 5% CO2 in DMEM supplemented with 10% FBS. The test compounds were then added to cells in 10-point dose response concentrations with the starting concentration being either 100 μM or 10 μM. The compounds were diluted from stock solutions in DMSO and the final DMSO concentration of the test compounds on cells was 0.1%. After 24 h of incubation with the test compounds the supernatant conditioned media was collected and the Aβ 40 levels were determined using a sandwich ELISA. The IC50 of the compound was calculated from the percent of control or percent inhibition of Aβ 40 as a function of the concentration of the test compound.
The sandwich ELISA to detect Aβ 40 was performed in 96 well microtiter plates, which were pre-treated with goat anti-rabbit IgG (Pierce). The capture and detecting antibody pair that were used to detect Aβ 40 from cell supernatants were affinity purified pAb40 (Biosource) and biotinylated 6E10 (Signet Labs Inc.), respectively. The optimal concentration for the pAb40 antibody was 3 μg/ml in Superblock/TBS (Pierce) that was supplemented with 0.05% Tween 20 (Sigma).
Cellular supernatants were incubated with the capture antibody for 3 h at 4° C., followed by 3 wash steps in TBS-tween (0.05%). The detecting antibody incubation was for 2 h at 4° C., again followed by the wash steps as described previously. The final readout of the ELISA is Time-Resolved Fluorescence (counts per minute) using Delfia reagents Streptavidin-Europium and Enhancement solutions (Perkin Elmer) and the Victor 2 multilabel counter (Perkin Elmer).

[2] = target: BACE 1 (beta secretase enzyme) (Homo sapiens (Human), UniProt P56817); assay: In vitro enzymatic BACE FRET assay; assay type: biochemical; details: average IC50
BACE 1 (beta secretase enzyme), sequence (P56817 46-501): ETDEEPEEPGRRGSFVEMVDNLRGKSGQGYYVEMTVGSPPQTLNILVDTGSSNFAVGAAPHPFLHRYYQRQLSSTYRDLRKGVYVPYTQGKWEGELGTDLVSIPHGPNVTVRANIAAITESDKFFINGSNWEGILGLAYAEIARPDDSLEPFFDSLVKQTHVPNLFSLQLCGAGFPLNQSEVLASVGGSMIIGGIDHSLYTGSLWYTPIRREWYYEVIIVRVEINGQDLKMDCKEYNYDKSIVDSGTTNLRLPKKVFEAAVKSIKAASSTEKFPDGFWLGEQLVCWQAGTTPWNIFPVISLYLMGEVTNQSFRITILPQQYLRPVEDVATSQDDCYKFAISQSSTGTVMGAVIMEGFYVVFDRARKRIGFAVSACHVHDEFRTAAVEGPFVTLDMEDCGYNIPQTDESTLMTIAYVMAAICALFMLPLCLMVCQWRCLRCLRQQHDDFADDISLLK
Method: In Vitro Enzymatic BACE FRET (Fluorescence Resonance Energy Transfer) Assay
The assay buffer used in this screen is 0.05 M acetate, pH 4.2, 10% DMSO final, 100 uM genapol (which is a nonionic detergent, below its Critical Micelle Concentration). […] This assay is effectively started by the addition of FRET substrate (50 nM) and the combination is incubated for one hour. The FRET assay is terminated with by addition of Tris buffer, which raises the pH to neutrality, and the fluorescence is determined. The FRET substrate is a peptide with commercially available fluorophore and quencher, on opposite sides of the BACE cleavage site. Proteolytic cleavage of the FRET substrate releases quenching of fluorescence (excitation […] and […]).

[3] = target: Cathepsin D (Homo sapiens (Human), UniProt P07339); assay: In vitro enzymatic Cat D (Cathepsin D) FRET assay; assay type: biochemical; details: average IC50
Cathepsin D, sequence (P07339 65-412, species assumed): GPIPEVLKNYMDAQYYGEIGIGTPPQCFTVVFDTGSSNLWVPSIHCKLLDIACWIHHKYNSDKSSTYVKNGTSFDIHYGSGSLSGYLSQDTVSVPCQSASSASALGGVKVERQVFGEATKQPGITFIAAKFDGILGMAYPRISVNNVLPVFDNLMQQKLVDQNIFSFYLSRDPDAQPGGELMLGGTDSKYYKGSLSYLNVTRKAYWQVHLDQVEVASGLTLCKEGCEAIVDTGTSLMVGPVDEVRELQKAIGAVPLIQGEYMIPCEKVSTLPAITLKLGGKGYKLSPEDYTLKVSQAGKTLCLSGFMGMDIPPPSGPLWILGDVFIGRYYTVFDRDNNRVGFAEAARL
Method: In Vitro Enzymatic Cat D (Cathepsin D) FRET (Fluorescence Resonance Energy Transfer) Assay
Recombinant CathepsinD was expressed in CHO cells. The assay buffer for CathepsinD is 0.05 M citrate pH 3.5, 10% DMSO final, 5 mM CHAPS. […] The assays are effectively started by the addition of different FRET substrates (20 nM for CathepsinD) and the combination is incubated for one hour. The FRET assay is terminated with by addition of Tris buffer, which raises the pH to neutrality, and the fluorescence is determined. The FRET substrate is a peptide with commercially available fluorophore and quencher, on opposite sides of the BACE cleavage site. […] Proteolytic cleavage of the FRET substrate releases quenching of fluorescence (CathepsinD excitation 500 nm and emission 580 nm).

| Compound | pIC50 ([1]; Homo sapiens, HEK293) | pIC50 [2] | pIC50 [3] | pIC50 [1] |
| --- | --- | --- | --- | --- |
| COc1cnc(C(=O)Nc2ccc3c(c2)[C@@]2(CCSC(N)=N2)c2cc(Cl)nc(F)c2O3)cn1 [Example 56, N-((5S)-2′-amino-3-chloro-1-fluoro-5′,6′-dihydrospiro[chromeno[2,3-c]pyridine-5,4′-[1,3]thiazin]-7-yl)-5-methoxy-2-pyrazinecarboxamide] | 6.78 | 8.21 | < 3.40 |  |
| NC1=N[C@@]2(CCO1)c1cc(NC(=O)c3ccc(F)cn3)ccc1Oc1c2cc(C2=CCCOC2)nc1F [Example 83, N-((5S)-2′-amino-3-(5,6-dihydro-2H-pyran-3-yl)-1-fluoro-5′,6′-dihydrospiro[chromeno[2,3-c]pyridine-5,4′-[1,3]oxazin]-7-yl)-5-fluoro-2-pyridinecarboxamide] | 9.40 | 8.03 | 3.59 |  |
| NC1=N[C@@]2(CCO1)c1cc(NC(=O)c3ccc(Cl)cn3)ccc1Oc1cnc(Cl)cc12 [Example 79, N-((5S)-2′-amino-3-chloro-5′,6′-dihydrospiro[chromeno[2,3-c]pyridine-5,4′-[1,3]oxazin]-7-yl)-5-chloro-2-pyridinecarboxamide] | 8.00 | 7.41 | 3.40 |  |
| NC1=N[C@@]2(CCO1)c1cc(NC(=O)c3ccc(Cl)cc3F)ccc1Oc1ncc(Br)cc12 [Example 37, N-((5S)-2′-amino-3-bromo-5′,6′-dihydrospiro[chromeno[2,3-b]pyridine-5,4′-[1,3]oxazin]-7-yl)-4-chloro-2-fluorobenzamide] | 6.90 | 6.92 | < 3.40 |  |
| COc1cc(F)c2c(c1)[C@]1(CCOC(N)=N1)c1cc(NC(=O)c3ccc(Cl)cc3F)ccc1O2 [Example 76, N-((4S)-2-amino-5′-fluoro-7′-methoxy-5,6-dihydrospiro[1,3-oxazine-4,9′-xanthen]-2′-yl)-4-chloro-2-fluorobenzamide] | 6.69 | 6.74 | 3.40 |  |
| COc1cnc(C(=O)Nc2ccc3c(c2)[C@@]2(CCSC(N)=N2)c2cc(C4=CCOCC4)cc(F)c2O3)cn1 [Example 60, N-((4S)-2-amino-7′-(3,6-dihydro-2H-pyran-4-yl)-5′-fluoro-5,6-dihydrospiro[1,3-thiazine-4,9′-xanthen]-2′-yl)-5-methoxy-2-pyrazinecarboxamide] | 8.37 | 8.21 | 3.76 |  |
| N#Cc1ccc(C(=O)Nc2ccc3c(c2)[C@@]2(CCOC(N)=N2)c2cc(-c4cncc(F)c4)nc(F)c2O3)nc1 [Example 69, N-((5S)-2′-amino-1-fluoro-3-(5-fluoro-3-pyridinyl)-5′,6′-dihydrospiro[chromeno[2,3-c]pyridine-5,4′-[1,3]oxazin]-7-yl)-5-cyano-2-pyridinecarboxamide] | 10.09 | 9.22 | 3.88 |  |
| COc1cc(F)c2c(c1)[C@]1(CCOC(N)=N1)c1cc(NC(=O)c3ccc(C#N)cn3)ccc1O2 [Example 74, N-((4S)-2-amino-5′-fluoro-7′-methoxy-5,6-dihydrospiro[1,3-oxazine-4,9′-xanthen]-2′-yl)-5-cyano-2-pyridinecarboxamide] | 8.34 | 7.97 | 3.83 |  |
| NC1=N[C@@]2(CCS1)c1cc(NC(=O)c3ccc(F)cn3)ccc1Oc1c2cc(-c2ccnc(F)c2)nc1F [Example 118, N-((5S)-2′-amino-1-fluoro-3-(2-fluoro-4-pyridinyl)-5′,6′-dihydrospiro[chromeno[2,3-c]pyridine-5,4′-[1,3]thiazin]-7-yl)-5-fluoro-2-pyridinecarboxamide] | 8.38 | 8.82 | 3.40 |  |
| COc1ccc(C(=O)Nc2ccc3c(c2)[C@@]2(CCSC(N)=N2)c2cc(-c4ccnc(F)c4)nc(F)c2O3)nc1 [Example 115, N-((5S)-2′-amino-1-fluoro-3-(2-fluoro-4-pyridinyl)-5′,6′-dihydrospiro[chromeno[2,3-c]pyridine-5,4′-[1,3]thiazin]-7-yl)-5-methoxy-2-pyridinecarboxamide] | 8.66 | 9.40 | 3.79 |  |
| COc1cnc(C(=O)Nc2ccc3c(c2)[C@@]2(CCSC(N)=N2)c2cc(C4=CCOCC4)ncc2O3)cn1 [Example 103, N-((5S)-2′-amino-3-(3,6-dihydro-2H-pyran-4-yl)-5′,6′-dihydrospiro[chromeno[2,3-c]pyridine-5,4′-[1,3]thiazin]-7-yl)-5-methoxy-2-pyrazinecarboxamide] | 8.96 | 8.77 | 3.40 |  |
| NC1=N[C@@]2(CCO1)c1cc(NC(=O)c3ccc(Cl)cn3)ccc1Oc1ncc(C3=CCCOC3)cc12 [Example 35, N-((5S)-2′-amino-3-(5,6-dihydro-2H-pyran-3-yl)-5′,6′-dihydrospiro[chromeno[2,3-b]pyridine-5,4′-[1,3]oxazin]-7-yl)-5-chloro-2-pyridinecarboxamide] | 8.48 | 8.29 | < 5.78 |  |
| NC1=N[C@@]2(CCO1)c1cc(NC(=O)c3ccc(Cl)cn3)ccc1Oc1ncccc12 [Example 36, N-((5S)-2′-amino-5′,6′-dihydrospiro[chromeno[2,3-b]pyridine-5,4′-[1,3]oxazin]-7-yl)-5-chloro-2-pyridinecarboxamide] | 7.83 | 7.35 | < 3.40 |  |
| COc1ccc(C(=O)Nc2ccc3c(c2)[C@@]2(CCSC(N)=N2)c2cc(O)cc(F)c2O3)nc1 [Example 105, N-((4S)-2-amino-5′-fluoro-7′-hydroxy-5,6-dihydrospiro[1,3-thiazine-4,9′-xanthen]-2′-yl)-5-methoxy-2-pyridinecarboxamide] | 7.08 | 7.53 | 3.65 |  |
| N#Cc1ccc(C(=O)Nc2ccc3c(c2)[C@@]2(CCOC(N)=N2)c2cc(C4=CCCOC4)nc(F)c2O3)nc1 [Example 52, N-((5S)-2′-amino-3-(5,6-dihydro-2H-pyran-3-yl)-1-fluoro-5′,6′-dihydrospiro[chromeno[2,3-c]pyridine-5,4′-[1,3]oxazin]-7-yl)-5-cyano-2-pyridinecarboxamide] | 9.30 | 8.70 | 3.88 |  |
| CCOc1cccnc1Nc1ccc2c(c1)[C@@]1(CCSC(N)=N1)c1cc(OC)cc(F)c1O2 [Example 33, (4S)-N~2~′-(3-ethoxy-2-pyridinyl)-5′-fluoro-7′-methoxy-5,6-dihydrospiro[1,3-thiazine-4,9′-xanthene]-2,2′-diamine] |  | 7.31 | 3.58 | 7.18 |
| NC1=N[C@@]2(CCO1)c1cc(NC(=O)c3cnc(Cl)cn3)ccc1Oc1c2cc(Cl)nc1F [Example 49, N-((5S)-2′-amino-3-chloro-1-fluoro-5′,6′-dihydrospiro[chromeno[2,3-c]pyridine-5,4′-[1,3]oxazin]-7-yl)-5-chloro-2-pyrazinecarboxamide] | 6.74 | 7.79 | 3.49 |  |
| COc1ccc(C(=O)Nc2ccc3c(c2)[C@@]2(CCSC(N)=N2)c2cc(-c4cncc(F)c4)nc(F)c2O3)nc1 [Example 113, N-((5S)-2′-amino-1-fluoro-3-(5-fluoro-3-pyridinyl)-5′,6′-dihydrospiro[chromeno[2,3-c]pyridine-5,4′-[1,3]thiazin]-7-yl)-5-methoxy-2-pyridinecarboxamide] | 8.74 | 8.96 | 3.92 |  |
